Like-named read-outs stand apart in the source and are kept apart here.
Experiments:
CCRF-CEM = assay: panel of 60 human tumor cell lines, growth inhibition (Leukemia)
MOLT-4 = assay: as above; conditions: MOLT-4
LOX IMVI = assay: panel of 60 human tumor cell lines, growth inhibition (Melanoma)
SK-MEL-2 = assay: as above; conditions: SK-MEL-2
SK-MEL-5 = assay: as above; conditions: 8K-MEL-5
HCC-2998 = assay: panel of 60 human tumor cell lines, growth inhibition (Colon Cancer); conditions: HCC-2998
HCT-15 = assay: as above; conditions: HCT-15
CAKI-1 = assay: panel of 60 human tumor cell lines, growth inhibition (Renal Cancer); conditions: CAKI-1
RXF 393 = assay: as above; conditions: RXF 393
SN12C = assay: as above
MCF7 = assay: panel of 60 human tumor cell lines, growth inhibition (Breast Cancer); conditions: MCF7
MDA-MB-231/ATCC = assay: as above; conditions: MDA-MB-231/ATCC
SK-OV-3 = assay: panel of 60 human tumor cell lines, growth inhibition (Ovarian Cancer); conditions: SK-OV-3
DU-145 = assay: panel of 60 human tumor cell lines, growth inhibition (Prostate Cancer); conditions: DU-145
HOP-62 = assay: panel of 60 human tumor cell lines, growth inhibition (Non-Small Cell Lung Cancer); conditions: HOP-62
HOP-92 = assay: as above; conditions: HOP-92
NCI-H226 = assay: as above; conditions: NCI-H226
NCI-H460 = assay: as above; conditions: NCI-H460

## C=C1C(=O)O[C@H]2[C@H]1CC/C(COC(=O)N1CCN(C)CC1)=C\CC[C@@]1(C)O[C@@H]21 [JVM 2-44]
HL-60(TB)
  GI50: 2.53 µM
  TGI: 9.30E−6
HL-60(TB); Log10 Concentration −4.0
  Mean Optical Densities: 0.925
  Percent Growth: −37%
HL-60(TB); Log10 Concentration −5.0
  Mean Optical Densities: 1.432
  Percent Growth: −3%
HL-60(TB); Log10 Concentration −6.0
  Mean Optical Densities: 2.594
HL-60(TB); Log10 Concentration −7.0
  Mean Optical Densities: 2.607
  Percent Growth: 87%
HL-60(TB); Log10 Concentration −8.0
  Mean Optical Densities: 2.812
  Percent Growth: 102%
HL-60(TB); read-out: LC50
  CC50: > 100 µM
CCRF-CEM
  GI50: 3.06 µM
  TGI: 1.84E−5
CCRF-CEM; Log10 Concentration −4.0
  Mean Optical Densities: 0.393
  Percent Growth: −25%
CCRF-CEM; Log10 Concentration −5.0
  Mean Optical Densities: 0.689
  Percent Growth: 9%
CCRF-CEM; Log10 Concentration −6.0
  Mean Optical Densities: 2.185
  Percent Growth: 89%
CCRF-CEM; Log10 Concentration −7.0
  Mean Optical Densities: 2.250
  Percent Growth: 92%
CCRF-CEM; Log10 Concentration −8.0
  Mean Optical Densities: 2.265
  Percent Growth: 93%
MOLT-4
  GI50: 5.49 µM
  TGI: 3.43E−5
MOLT-4; Log10 Concentration −4.0
  Mean Optical Densities: 0.453
  Percent Growth: −30%
MOLT-4; Log10 Concentration −5.0
  Mean Optical Densities: 1.062
  Percent Growth: 35%
MOLT-4; Log10 Concentration −6.0
  Mean Optical Densities: 1.734
  Percent Growth: 92%
MOLT-4; Log10 Concentration −7.0
  Mean Optical Densities: 1.794
  Percent Growth: 98%
MOLT-4; Log10 Concentration −8.0
  Mean Optical Densities: 1.889
  Percent Growth: 106%
LOX IMVI
  GI50: 12.4 µM
  TGI: 2.63E−5
LOX IMVI; Log10 Concentration −4.0
  Mean Optical Densities: 0.051
  Percent Growth: −89%
LOX IMVI; Log10 Concentration −5.0
  Mean Optical Densities: 1.794
  Percent Growth: 64%
LOX IMVI; Log10 Concentration −6.0
  Percent Growth: 96%
LOX IMVI; Log10 Concentration −7.0
  Mean Optical Densities: 2.419
  Percent Growth: 94%
LOX IMVI; Log10 Concentration −8.0
  Mean Optical Densities: 2.424
  Percent Growth: 94%
SK-MEL-2
  GI50: 17.2 µM
  TGI: 3.60E−5
SK-MEL-2; Log10 Concentration −4.0
  Mean Optical Densities: 0.382
  Percent Growth: −69%
SK-MEL-2; Log10 Concentration −5.0
  Mean Optical Densities: 1.984
  Percent Growth: 87%
SK-MEL-2; Log10 Concentration −6.0
  Mean Optical Densities: 2.148
  Percent Growth: 106%
SK-MEL-2; Log10 Concentration −7.0
  Mean Optical Densities: 2.037
  Percent Growth: 93%
SK-MEL-2; Log10 Concentration −8.0
  Mean Optical Densities: 2.082
  Percent Growth: 98%
SK-MEL-5
  GI50: 16.1 µM
  TGI: 3.06E−5
SK-MEL-5; Log10 Concentration −4.0
  Mean Optical Densities: 0.067
  Percent Growth: −91%
SK-MEL-5; Log10 Concentration −5.0
  Mean Optical Densities: 2.878
  Percent Growth: 87%
SK-MEL-5; Log10 Concentration −6.0
  Mean Optical Densities: 3.118
  Percent Growth: 97%
SK-MEL-5; Log10 Concentration −7.0
  Mean Optical Densities: 3.182
  Percent Growth: 100%
SK-MEL-5; Log10 Concentration −8.0
  Mean Optical Densities: 3.116
  Percent Growth: 97%
HCC-2998
  GI50: 17.5 µM
  TGI: 3.55E−5
HCC-2998; Log10 Concentration −4.0
  Mean Optical Densities: 0.178
  Percent Growth: −73%
HCC-2998; Log10 Concentration −5.0
  Mean Optical Densities: 1.871
  Percent Growth: 90%
HCC-2998; Log10 Concentration −6.0
  Mean Optical Densities: 2.049
  Percent Growth: 103%
HCC-2998; Log10 Concentration −7.0
  Mean Optical Densities: 1.999
  Percent Growth: 99%
HCC-2998; Log10 Concentration −8.0
  Mean Optical Densities: 1.968
  Percent Growth: 97%
HCT-15
  GI50: 3.01 µM
  TGI: 1.42E−5
HCT-15; Log10 Concentration −4.0
  Mean Optical Densities: 0.108
  Percent Growth: −71%
HCT-15; Log10 Concentration −5.0
  Mean Optical Densities: 0.643
  Percent Growth: 13%
HCT-15; Log10 Concentration −6.0
  Mean Optical Densities: 2.210
  Percent Growth: 84%
HCT-15; Log10 Concentration −7.0
  Mean Optical Densities: 2.370
  Percent Growth: 92%
HCT-15; Log10 Concentration −8.0
  Mean Optical Densities: 2.435
  Percent Growth: 94%
CAKI-1
  GI50: 4 µM
  TGI: 1.67E−5
CAKI-1; Log10 Concentration −4.0
  Mean Optical Densities: 0.032
  Percent Growth: −95%
CAKI-1; Log10 Concentration −5.0
  Mean Optical Densities: 1.287
  Percent Growth: 27%
CAKI-1; Log10 Concentration −6.0
  Mean Optical Densities: 2.593
  Percent Growth: 84%
CAKI-1; Log10 Concentration −7.0
  Mean Optical Densities: 2.649
  Percent Growth: 87%
CAKI-1; Log10 Concentration −8.0
  Mean Optical Densities: 2.814
  Percent Growth: 94%
RXF 393
  GI50: 2.55 µM
  TGI: 8.91E−6
RXF 393; Log10 Concentration −4.0
  Mean Optical Densities: 0.329
  Percent Growth: −71%
RXF 393; Log10 Concentration −5.0
  Mean Optical Densities: 1.871
  Percent Growth: −5%
RXF 393; Log10 Concentration −6.0
  Mean Optical Densities: 1.644
  Percent Growth: 87%
RXF 393; Log10 Concentration −7.0
  Mean Optical Densities: 1.692
  Percent Growth: 96%
RXF 393; Log10 Concentration −8.0
  Mean Optical Densities: 1.646
  Percent Growth: 88%
SN12C
  GI50: 4.4 µM
  TGI: 2.80E−5
SN12C; Log10 Concentration −4.0
  Mean Optical Densities: 0.189
  Percent Growth: −64%
SN12C; Log10 Concentration −5.0
  Mean Optical Densities: 0.932
  Percent Growth: 28%
SN12C; Log10 Concentration −6.0
  Mean Optical Densities: 1.835
  Percent Growth: 90%
SN12C; Log10 Concentration −7.0
  Mean Optical Densities: 1.898
  Percent Growth: 94%
SN12C; Log10 Concentration −8.0
  Mean Optical Densities: 1.940
  Percent Growth: 97%
MCF7
  GI50: 3.14 µM
  TGI: 1.44E−5
MCF7; Log10 Concentration −4.0
  Mean Optical Densities: 0.116
  Percent Growth: −68%
MCF7; Log10 Concentration −5.0
  Mean Optical Densities: 0.561
  Percent Growth: 13%
MCF7; Log10 Concentration −6.0
  Mean Optical Densities: 1.725
  Percent Growth: 87%
MCF7; Log10 Concentration −7.0
  Mean Optical Densities: 1.666
  Percent Growth: 83%
MCF7; Log10 Concentration −8.0
  Mean Optical Densities: 1.767
  Percent Growth: 89%
MDA-MB-231/ATCC
  GI50: 10.4 µM
  TGI: 2.64E−5
MDA-MB-231/ATCC; Log10 Concentration −4.0
  Mean Optical Densities: 0.200
  Percent Growth: −72%
MDA-MB-231/ATCC; Log10 Concentration −5.0
  Mean Optical Densities: 1.153
  Percent Growth: 52%
MDA-MB-231/ATCC; Log10 Concentration −6.0
  Mean Optical Densities: 1.525
  Percent Growth: 95%
MDA-MB-231/ATCC; Log10 Concentration −7.0
  Mean Optical Densities: 1.568
  Percent Growth: 106%
MDA-MB-231/ATCC; Log10 Concentration −8.0
  Mean Optical Densities: 1.619
  Percent Growth: 106%
SK-OV-3
  GI50: 31.8 µM
  TGI: >1.00E−4
SK-OV-3; Log10 Concentration −4.0
  Mean Optical Densities: 1.032
  Percent Growth: 4%
SK-OV-3; Log10 Concentration −5.0
  Mean Optical Densities: 1.852
  Percent Growth: 96%
SK-OV-3; Log10 Concentration −6.0
  Mean Optical Densities: 1.892
  Percent Growth: 101%
SK-OV-3; Log10 Concentration −7.0
  Mean Optical Densities: 1.808
  Percent Growth: 91%
SK-OV-3; Log10 Concentration −8.0
  Mean Optical Densities: 1.885
  Percent Growth: 100%
DU-145
  GI50: 3.98 µM
  TGI: 1.44E−5
DU-145; Log10 Concentration −4.0
  Mean Optical Densities: 0.835
  Percent Growth: −93%
DU-145; Log10 Concentration −5.0
  Mean Optical Densities: 0.750
  Percent Growth: 17%
DU-145; Log10 Concentration −6.0
  Mean Optical Densities: 1.844
  Percent Growth: 99%
DU-145; Log10 Concentration −7.0
  Mean Optical Densities: 1.845
  Percent Growth: 99%
DU-145; Log10 Concentration −8.0
  Mean Optical Densities: 1.839
  Percent Growth: 99%
HOP-62
  GI50: 27.3 µM
  TGI: >1.00E−4
HOP-62; Log10 Concentration −4.0
  Mean Optical Densities: 0.936
  Percent Growth: 7%
HOP-62; Log10 Concentration −5.0
  Mean Optical Densities: 2.007
  Percent Growth: 83%
HOP-62; Log10 Concentration −6.0
  Mean Optical Densities: 2.174
  Percent Growth: 95%
HOP-62; Log10 Concentration −7.0
  Mean Optical Densities: 2.046
  Percent Growth: 86%
HOP-62; Log10 Concentration −8.0
  Mean Optical Densities: 2.193
  Percent Growth: 96%
HOP-92
  GI50: 2.95 µM
  TGI: 1.48E−5
HOP-92; Log10 Concentration −4.0
  Mean Optical Densities: 0.116
  Percent Growth: −87%
HOP-92; Log10 Concentration −5.0
  Mean Optical Densities: 0.995
  Percent Growth: 18%
HOP-92; Log10 Concentration −6.0
  Mean Optical Densities: 1.307
  Percent Growth: 79%
HOP-92; Log10 Concentration −7.0
  Mean Optical Densities: 1.345
  Percent Growth: 86%
HOP-92; Log10 Concentration −8.0
  Mean Optical Densities: 1.394
  Percent Growth: 95%
NCI-H226
  GI50: 12.4 µM
  TGI: 3.73E−5
NCI-H226; Log10 Concentration −4.0
  Mean Optical Densities: 0.601
  Percent Growth: −45%
NCI-H226; Log10 Concentration −5.0
  Mean Optical Densities: 2.002
  Percent Growth: 60%
NCI-H226; Log10 Concentration −6.0
  Mean Optical Densities: 2.540
  Percent Growth: 95%
NCI-H226; Log10 Concentration −7.0
  Mean Optical Densities: 2.533
  Percent Growth: 94%
NCI-H226; Log10 Concentration −8.0
  Mean Optical Densities: 2.561
  Percent Growth: 96%
NCI-H460
  GI50: 20.3 µM
  TGI: 5.67E−5
NCI-H460; Log10 Concentration −4.0
  Mean Optical Densities: 0.202
  Percent Growth: −28%
NCI-H460; Log10 Concentration −5.0
  Mean Optical Densities: 2.401
  Percent Growth: 84%
NCI-H460; Log10 Concentration −6.0
  Mean Optical Densities: 2.741
  Percent Growth: 98%
NCI-H460; Log10 Concentration −7.0
  Mean Optical Densities: 2.825
  Percent Growth: 101%
NCI-H460; Log10 Concentration −8.0
  Mean Optical Densities: 2.830
  Percent Growth: 101%

From US9469650B2, “Melampomagnolide B derivatives” (BOARD OF TRUSTEES OF THE UNIVERSITY OF ARKANSAS, priority 2013, dated 2016)
